Experimental data: patent EP0356223A2, “HIV protease inhibitors useful for the treatment of aids” (MERCK & CO. INC., priority 1988, dated 1990)

target: T1, HIV protease (Human immunodeficiency virus type 1 group M subtype B, UniProt P04585); experiment: Assay for Inhibition of Microbial Expressed Viral Protease; assay type: biochemical; details: protease expressed in Eschericia coli; peptide substrate Val-Ser-Gln-Asn-(betanapthyl)Ala-Pro-lie-Val 0.5 mg/ml; 50 mM Na acetate, pH 5.5, 30° C, 1 hr; HPLC readout
T1 construct: the protease expressed in Eschericia coli; made in house; host or cells: Escherichia coli
Protocol: Assay for Inhibition of Microbial Expressed Viral Protease
Inhibition studies of the reaction of the protease expressed in Eschericia coli with a peptide substrate [Val-Ser-Gln-Asn-(betanapthyl)Ala-Pro-lie-Val, 0.5 mg/ml at the time the reaction is initiated] were in 50 mM Na acetate, pH 5.5, at 30° C for 1 hr. Various concentrations of inhibitor in 1.0 ul DMSO were added to 25 ul of the peptide solution in water. The reaction is initiated by the addition of 15 ul of 0.33 nM protease (0.11 ng) in a solution of 0.133 M Na acetate pH 5.5 and 0.267% bovine serum albumin. The reaction was quenched with 160 ul of 5% phosphoric acid. Products of the reaction were separated by HPLC (VYDAC wide pore 5 cm C-18 reverse phase, acetonitrile gradient, 0.1% phosphoric acid). The extent of inhibition of the reaction was determined from the peak heights of the products.

Row | IC50 [nM] | SMILES
1 | 0.5 to 10 | CC[C@H](C)[C@H](NC(=O)[C@H](Cc1ccccc1)C[C@H](O)[C@H](Cc1ccccc1)NC(=O)CCC(=O)O)C(=O)NCc1ccccc1 [Compound F, N-benzyl-N'-(succinoyl)-5(S)-amino-4(S)-hydroxy-6-phenyl-2(R)-(phenylmethyl)hexanoyl isoleucyl amide]
2 | 0.5 to 10 | O=C(O)CCC(=O)N[C@@H](Cc1ccccc1)[C@@H](O)C[C@@H](Cc1ccccc1)C(=O)N[C@H]1c2ccccc2C[C@H]1O [Compound G, N-(2(R)-hydroxy-1 (S)-indanyl)-N'-(succinoyl)-5(S)-amino-4(S)-hydroxy-6-phenyl-2(R)-(phenylmethyl)-hexanamide]
3 | 0.5 to 10 | CS(=O)(=O)N[C@@H](Cc1ccccc1)[C@@H](O)C[C@@H](Cc1ccccc1)C(=O)N[C@H]1c2ccccc2C[C@H]1O [Compound H, N-(2(R)-hydroxy-1 (S)-indanyl)-N'-(methanesulfonyl)-5(S)-amino-4(S)-hydroxy-6-phenyl-2(R)-(phenylmethyl)-hexanamide]
4 | 0.5 to 10 | O=C1CC[C@@H](C(=O)N[C@@H](Cc2ccccc2)[C@@H](O)C[C@@H](Cc2ccccc2)C(=O)N[C@H]2c3ccccc3C[C@H]2O)O1 [Compound J, N-(2(R)-hydroxy-1 (S)-indanyl)-N'-(5-oxo-2(S)-tetrahydrofuranylcarbonyl)-5(S)-amino-4(S)-hydroxy-6-phenyl-2(R)-(phenylmethyl)hexanamide]
